Measured values as given in patent US10550095B2, “Cancerous cell growth inhibiting compounds” (WISYS TECHNOLOGY FOUNDATION, INC., priority 2016, dated 2020).
“And” between values parts separate entries of the source, which are not always exact repeats. Equal entries are not always repeated. “Also recorded” adds a separate entry of the source.

What was measured:
[1] = test system: MITF; test: RT-qPCR of MITF (mit-f) in melanoma cells; assay type: cell-based, mouse
Text: (§1) To understand how A11 inhibits melanoma proliferation, we examined the MITF expression level in A11-treated B16-F10 cells by western blot and RT-qPCR.
(§2) The results of several qPCR experiments using melanoma cells were compiled in FIG. 20. Pax3 and sox10 are genes determine the melanocyte precursors while mit-f is the specific transcription factor that initiates melanocyte differentiation. Dct and tyr genes are expressed in differentiated melanocytes. […] The decrease in magnitude is not significant likely due to the very heterogeneous cell types in melanoma.

[2] = test system: Pax3; test: RT-qPCR of Pax3 in melanoma cells; assay type: cell-based, mouse
Text: as §1, §2

[3] = test system: Akt; test: Western blot for phosphorylated Akt in melanoma cells; assay type: cell-based, mouse; conditions: western blot (FIG. 19B)
[4] = test system: B16-F10 melanoma cells; test: Melanin in melanoma cells; assay type: cell-based, mouse; conditions: for Melanin: melanoma cells
Text: (MEK-I is a known MEK inhibitor as a comparison purchased from Sigma): […]

[5] = test system: melanocytes in zebrafish embryos; test: Mitotic index of melanocytes in zebrafish embryos; assay type: in vivo; conditions: zebrafish embryo (FIG. 17)
[6] = test system: MEK; test: MEK activity (FIG. 12)
Text: FIG. 12 are photo illustrations of MEK activity with exemplary embodiments of the human drug treatments of the present invention; and
(§3) The intracellular signaling pathway that involves Raf and MEK is known to be the major pathway to regulate cell proliferation. Many current melanoma drugs such as cobimetinib works by inhibiting Raf or MEK. While they are effective in inhibiting melanoma growth, they exert different degrees of side effect on normal cells by inhibiting the Raf-MEK pathway. […] Also, with regard to FIG. 13, the compound SK-03-92 is shown to inhibit melanoma cell growth by approximately 10% at 10 μM and at 100% at 40 μM.

[7] = test system: DCT (dopachrome tautomerase); test: RT-qPCR of DCT in melanoma cells; assay type: cell-based, mouse
Text: as §1, §2

[8] = test system: MITF; test: Western blot for MITF protein level in B16-F10 cells; assay type: cell-based, mouse; conditions: western blot vs DMSO control (FIG. 21)
Text: as §1

[9] = test system: tyrosinase; test: Effect on tyrosinase expression (FIG. 8)
Text: FIG. 8 is a graph of the effects of various pigment reducing compositions on tyrosinase expression;
as §3

[10] = test system: zebrafish embryos; test: Inhibition of melanin synthesis in zebrafish embryos, treated 24-76 hpf (Protocol 1); assay type: in vivo; conditions: zebrafish embryos treated 24-76 hpf
Description: (§4) The testing protocols for these compounds are as follows: • a. […] The embryos were monitored and imaged throughout their development to track the development of melanin pigment relative to a control group to which water was administered (Protocol 1). • b. […] The embryos were again monitored and imaged throughout their development relative to a control group to which water was administered (Protocol 2). • c. Additionally, to test the ability of the pigment to recover after being treated with our drugs, all embryos were treated at 24 hpf with the chemicals until the 48 hpf or 64 hpf time period, then washed with water to remove the treatment. The embryos were again monitored and imaged throughout their development relative to a control group to which water was administered (Protocol 3).
(§5) The black pigment (or melanin) is very easy to observe in zebrafish. In brief, adult zebrafish are taken to breed embryos. Morphologically normal embryos of 24 hours post fertilization (hpf) stage were selected for incubation in the drugs from 24 to 76 hours. During the incubation, the embryos are monitored and imaged (see FIGS. 1 and 3) to track the development of melanin. […] To broaden the comparison with other skin-whitening products, this project can also test at least three other compounds, Kojic acid, Gallic acid and Haginin. […] In the meantime, the whole organism context also allows us to examine the toxicological profile, if any, of these compounds.

[11] = test system: tyrosinase; test: RT-qPCR of tyrosinase in melanoma cells; assay type: cell-based, mouse
Text: as §1, §2

[12] = test system: melanocytes in zebrafish embryos; test: TUNEL assay, melanocyte apoptosis in normal and transgenic melanoma-forming zebrafish embryos; assay type: in vivo; conditions: normal and transgenic melanoma-forming embryos (FIGS. 18A-18B)
[13] = test system: zebrafish embryos; test: Skin Lightening Efficacy of All Analogs on Zebrafish Embryos (Table 1); assay type: in vivo; conditions: concentration not given
Description: as §4, §5

[14] = test system: melanoma cells; test: Mitotic index of melanoma cells (anti-phospho-histone H3 antibody); assay type: cell-based, mouse; conditions: anti-phospho-histone H3 (FIG. 16)
[15] = test system: primary human melanocytes; test: Growth of normal melanocytes; assay type: cell-based
Description: These cells proliferate slowly making it difficult to gather enough cells for experiments with all the A11 analogs. […] In the second experiment, A7 and a few other compounds were evaluated. […] At 10 μM, FSK-03-92 caused near 80% lethality (comparing with the 20% kill by 10 μM FSK-03-92 on melanoma cells in FIG. 14).

[16] = test system: B16-F10 melanoma cells; test: cells; assay type: cell-based
[17] = test system: zebrafish embryos; test: Effect on existing melanin and/or melanocytes, embryos treated at 48 hpf (Protocol 2); assay type: in vivo
Description: (§6) The testing protocols for these compounds are as follows: • a. […] The embryos were monitored and imaged throughout their development to track the development of melanin pigment relative to a control group to which water was administered (Protocol 1). • b. To test the effects of the drugs on existing melanin and/or melanocytes, the embryos were treated with the chemicals at 48 hpf, after pigment had developed. The embryos were again monitored and imaged throughout their development relative to a control group to which water was administered (Protocol 2). • c. Additionally, to test the ability of the pigment to recover after being treated with our drugs, all embryos were treated at 24 hpf with the chemicals until the 48 hpf or 64 hpf time period, then washed with water to remove the treatment. The embryos were again monitored and imaged throughout their development relative to a control group to which water was administered (Protocol 3).
To test the effects of the drugs on existing melanin and/or melanocytes, the embryos were treated with the chemicals A11, MEK-I and PTU at 48 hpf, after pigment had developed. The embryos were again monitored and imaged throughout their development according to Protocol 2.

[18] = test system: MAPK; test: Western blot for phosphorylated MAPK in melanoma cells; assay type: cell-based, mouse; conditions: melanoma cells (FIG. 19A)
Text: We wanted to further understand the molecular mechanism of A11 and its derivatives by examining the activities of MAPK, Akt, and PRPP pathways which regulate cell proliferation and cell death.
MAPK is involved in the major cell proliferation signaling pathway. In many cancer cells, MAPK is activated at high level by phosphorylation. Using the anti-phosphorylated-MAPK (p-MAPK) on western blot, it is very easy to understand the proliferation ability in cells. […] While the results are against our hypothesis and current understanding, it raises a very interesting mechanism of A11 which requires further investigation. […] The current understanding is that activated MAPK and Akt both lead to cell proliferation.

[19] = test system: zebrafish embryos; test: Pigment recovery after compound withdrawal (Protocol 3); assay type: in vivo; conditions: treated 24-48 hpf or 24-64 hpf, then washed, by 72 hpf
Description: as §6
It has been reported that melanin usually reappears after the withdrawal of skin whitening products. […] The pigmentation was monitored closely for 48-72 hours. Similarly, this experiment was repeated at least three times to gain a reproducible result.

[20] = test system: dct-expressing cells (differentiated melanocytes); test: In situ hybridization for the dct gene in zebrafish embryos; assay type: in vivo; conditions: zebrafish embryos (FIG. 22)
Text: To further understand the mechanism of A11, we examined the development of melanocytes by in situ hybridization for the dct (dopachrome tautomerase) gene which is expressed in differentiated melanocytes.

[21] = test system: transgenic melanoma zebrafish embryos; test: Melanoma formation and recovery in transgenic melanoma zebrafish embryos; assay type: in vivo
Description: as §3

COc1cc(O)cc(/C=C/Oc2ccccc2C)c1 [Analog A11, 2-Methylphenyl-E-(3-hydroxy-5-methoxy)-styryl Ether]
MITF (mit-f) mRNA expression (in words) [1]: lower amount of MITF mRNA; also recorded: expressed at high level; also recorded: decreases the expression of mit-f gene | Pax3 expression (in words) [2]: reduces Pax3 expression | phosphorylated Akt (in words) [3]: slight increase of phosphorylated Akt | Melanin ([4]; 2 μM): 99% | Melanin ([4]; 10 μM): 104% and 84% and 97% and 95% and 100% | Melanin ([4]; 20 μM): 101% and 92% | Melanin ([4]; 40 μM): 84% and 68% and 56% | melanin in B16-F10 cells (in words) ([4]; mouse cell line B16-F10): decrease of melanin | mitosis / mitotic index of melanocytes (in words) [5]: reduces mitosis | MEK activity (in words) [6]: increasing MEK activity | DCT expression (in words) [7]: decreased | MITF protein level (in words) [8]: distinguishably lower | tyrosinase formation (in words) [9]: not to inhibit tyrosinase formation | pigmentation inhibition (in words) [10]: nearly complete pigmentation loss; also recorded: inhibits pigmentation formation | Pigmentation ([10]; 10 μM): < 5% | tyrosinase expression (in words) [11]: decreased | melanocyte apoptosis / cell death (in words) [12]: does not induce apoptosis; also recorded: no significant difference | Pigmentation [13]: 10% | mitotic index of melanoma cells (in words) [14]: significantly lower mitotic index | toxicity to normal melanocytes (in words) [15]: does not seem to cause high toxicity | inhibition of growth of normal melanocytes (in words) ([15]; 10 μM): did not show any inhibition | Average Melanoma growth (from the previous chart) ([16]; 2 μM): 86% | Average Melanoma growth (from the previous chart) ([16]; 10 μM): 88% | Average Melanoma growth (from the previous chart) ([16]; 20 μM): 81% | Average Melanoma growth (from the previous chart) ([16]; 40 μM): 50% | cell proliferation compared to the control ([16]; 40 μM (FIG. 14)): 50% | EC50 ([16]; Mus musculus, B16-F10, melanoma cells (FIG. 14), read-out: EC50 in inhibiting melanoma growth): ~40 µM | melanoma cell death (in words) ([16]; any of the tested concentrations): no cell death was observed | inhibition of melanoma cell growth / cell number (in words) ([16]; melanoma cells): decrease of melanin as well as the cell number | Growth ([16]; melanoma cells, 2 μM): 86% | Growth ([16]; melanoma cells, 10 μM): 88% and 92% and 101% and 69% | Growth ([16]; melanoma cells, 20 μM): 81% and 80% | existing pigment remaining [17]: 20% | amount of p-MAPK / MAPK activity (in words) [18]: significantly increase the MAPK activity; also recorded: increases the amount of p-MAPK | pigmentation recovered after wash-off [19]: 50% | pigmentation recovered after wash-off ([19]; listed as A-11): approximately 50% | number of dct-expressing cells (in words) [20]: significantly lower than in the control | formation and recovery of melanoma (in words) [21]: inhibited the formation and recovery of melanoma; also recorded: inhibit both the formation of melanoma and the recovery of melanoma
